Assay results taken from PubChem BioAssay (NCI).
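GI50 is the concentration that inhibits growth by half. TGI is the concentration that stops growth completely.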

Key:
Assay in all cases: NCI-60 cell line screen, 384-well format
OVCAR-4 ovarian = tested on: OVCAR-4 ovarian
OVCAR-8 ovarian = tested on: OVCAR-8 ovarian
T-47D breast = tested on: T-47D breast
IGROV1 ovarian = tested on: IGROV1 ovarian
HCC-2998 colon = tested on: HCC-2998 colon
EKVX NSCLC = tested on: EKVX NSCLC
SF-268 CNS = tested on: SF-268 CNS
MDA-MB-435 melanoma = tested on: MDA-MB-435 melanoma
UACC-257 melanoma = tested on: UACC-257 melanoma
SNB-19 CNS = tested on: SNB-19 CNS
ACHN renal = tested on: ACHN renal
HCT-15 colon = tested on: HCT-15 colon
U251 glioblastoma = tested on: U251 glioblastoma
MOLT-4 leukemia = tested on: MOLT-4 leukemia
A549 NSCLC = tested on: A549 NSCLC
SNB-75 CNS = tested on: SNB-75 CNS
HOP-62 NSCLC = tested on: HOP-62 NSCLC
MDA-MB-231 breast = tested on: MDA-MB-231 breast
KM12 colon = tested on: KM12 colon
NCI-H23 lung = tested on: NCI-H23 lung
NCI-H322M lung = tested on: NCI-H322M lung
MDA-MB-468 breast = tested on: MDA-MB-468 breast
HCT-116 colon = tested on: HCT-116 colon
HOP-92 NSCLC = tested on: HOP-92 NSCLC
PC-3 prostate = tested on: PC-3 prostate
SK-MEL-5 melanoma = tested on: SK-MEL-5 melanoma
TK-10 renal = tested on: TK-10 renal
RXF 393 renal = tested on: RXF 393 renal
SK-OV-3 ovarian = tested on: SK-OV-3 ovarian
HL-60(TB) leukemia = tested on: HL-60(TB) leukemia
RPMI-8226 leukemia = tested on: RPMI-8226 leukemia
DU-145 prostate = tested on: DU-145 prostate
SR leukemia = tested on: SR leukemia
COLO 205 colon = tested on: COLO 205 colon
SK-MEL-28 melanoma = tested on: SK-MEL-28 melanoma
OVCAR-3 ovarian = tested on: OVCAR-3 ovarian
HT29 colon = tested on: HT29 colon
NCI-H460 NSCLC = tested on: NCI-H460 NSCLC
NCI/ADR-RES ovarian = tested on: NCI/ADR-RES ovarian
OVCAR-5 ovarian = tested on: OVCAR-5 ovarian
SF-539 CNS = tested on: SF-539 CNS
MALME-3M melanoma = tested on: MALME-3M melanoma
NCI-H522 lung = tested on: NCI-H522 lung
A498 renal = tested on: A498 renal
CAKI-1 renal = tested on: CAKI-1 renal
LOX IMVI melanoma = tested on: LOX IMVI melanoma
M14 melanoma = tested on: M14 melanoma
SN12C renal = tested on: SN12C renal
UACC-62 melanoma = tested on: UACC-62 melanoma
BT-549 breast = tested on: BT-549 breast
SF-295 CNS = tested on: SF-295 CNS
HS 578T breast = tested on: HS 578T breast
MCF7 breast = tested on: MCF7 breast

`Nc1ccc(-c2ccc3ncc4ccc(=O)n(-c5cccc(C(F)(F)F)c5)c4c3c2)cn1` showed a GI50 (OVCAR-4 ovarian) of under 10 nM, a TGI (OVCAR-4 ovarian) of 38.9 nM and a GI50 (OVCAR-8 ovarian) of 11.4 nM. For the same compound, the TGI (OVCAR-8 ovarian) was 1370 nM, the GI50 (T-47D breast) was under 10 nM and the TGI (T-47D breast) was 1310 nM. The GI50 (IGROV1 ovarian) was under 10 nM, the TGI (IGROV1 ovarian) was under 10 nM and the GI50 (HCC-2998 colon) was 10.5 nM. For the same compound, the TGI (HCC-2998 colon) was 318 nM, the GI50 (EKVX NSCLC) was under 10 nM and the TGI (EKVX NSCLC) was 62.9 nM. For the same compound, the GI50 (SF-268 CNS) was 34.5 nM, the TGI (SF-268 CNS) was 1140 nM and the GI50 (MDA-MB-435 melanoma) was 10.2 nM. For the same compound, the TGI (MDA-MB-435 melanoma) was 91.4 nM, the GI50 (UACC-257 melanoma) was 25.5 nM and the TGI (UACC-257 melanoma) was 199 nM. The GI50 (SNB-19 CNS) was 52.3 nM, the TGI (SNB-19 CNS) was 2380 nM and the GI50 (ACHN renal) was under 10 nM. The TGI (ACHN renal) was 168 nM, the GI50 (HCT-15 colon) was under 10 nM and the TGI (HCT-15 colon) was 1080 nM. The GI50 (U251 glioblastoma) was 30.1 nM, the TGI (U251 glioblastoma) was 1190 nM and the GI50 (MOLT-4 leukemia) was under 10 nM. The TGI (MOLT-4 leukemia) was 28.5 nM, the GI50 (A549 NSCLC) was under 10 nM and the TGI (A549 NSCLC) was 1070 nM. For the same compound, the GI50 (SNB-75 CNS) was under 10 nM, the TGI (SNB-75 CNS) was 1150 nM and the GI50 (HOP-62 NSCLC) was under 10 nM. The TGI (HOP-62 NSCLC) was 46.3 nM, the GI50 (MDA-MB-231 breast) was under 10 nM and the TGI (MDA-MB-231 breast) was 12500 nM. The GI50 (KM12 colon) was under 10 nM, the TGI (KM12 colon) was 2470 nM and the GI50 (NCI-H23 lung) was 23.2 nM. It also gave a TGI (NCI-H23 lung) of 400 nM, a GI50 (NCI-H322M lung) of under 10 nM and a TGI (NCI-H322M lung) of 46.9 nM. It also gave a GI50 (MDA-MB-468 breast) of under 10 nM, a TGI (MDA-MB-468 breast) of 171 nM and a GI50 (HCT-116 colon) of 25.5 nM. The TGI (HCT-116 colon) was 242 nM, the GI50 (HOP-92 NSCLC) was 26.1 nM and the TGI (HOP-92 NSCLC) was 1000 nM. The GI50 (PC-3 prostate) was under 10 nM, the TGI (PC-3 prostate) was 122 nM and the GI50 (SK-MEL-5 melanoma) was under 10 nM. For the same compound, the TGI (SK-MEL-5 melanoma) was 24.5 nM, the GI50 (TK-10 renal) was under 10 nM and the TGI (TK-10 renal) was 40.2 nM. It also gave a GI50 (RXF 393 renal) of 17.5 nM, a TGI (RXF 393 renal) of 1400 nM and a GI50 (SK-OV-3 ovarian) of under 10 nM. It also gave a TGI (SK-OV-3 ovarian) of 1020 nM, a GI50 (HL-60(TB) leukemia) of 17.9 nM and a TGI (HL-60(TB) leukemia) of 128 nM. For the same compound, the GI50 (RPMI-8226 leukemia) was under 10 nM, the TGI (RPMI-8226 leukemia) was under 10 nM and the GI50 (DU-145 prostate) was under 10 nM. The TGI (DU-145 prostate) was 378 nM, the GI50 (SR leukemia) was under 10 nM and the TGI (SR leukemia) was under 10 nM. For the same compound, the GI50 (COLO 205 colon) was 20.5 nM, the TGI (COLO 205 colon) was 103 nM and the GI50 (SK-MEL-28 melanoma) was 26 nM. It also gave a TGI (SK-MEL-28 melanoma) of 14200 nM, a GI50 (OVCAR-3 ovarian) of under 10 nM and a TGI (OVCAR-3 ovarian) of 293 nM. The GI50 (HT29 colon) was 45.6 nM, the TGI (HT29 colon) was 1320 nM and the GI50 (NCI-H460 NSCLC) was under 10 nM. The TGI (NCI-H460 NSCLC) was 71 nM, the GI50 (NCI/ADR-RES ovarian) was 26.1 nM and the TGI (NCI/ADR-RES ovarian) was 1070 nM. It also gave a GI50 (OVCAR-5 ovarian) of 13.4 nM, a TGI (OVCAR-5 ovarian) of 67.3 nM and a GI50 (SF-539 CNS) of under 10 nM. It also gave a TGI (SF-539 CNS) of 389 nM, a GI50 (MALME-3M melanoma) of under 10 nM and a TGI (MALME-3M melanoma) of 151 nM. It also gave a GI50 (NCI-H522 lung) of under 10 nM, a TGI (NCI-H522 lung) of 168 nM and a GI50 (A498 renal) of under 10 nM. For the same compound, the TGI (A498 renal) was 13.2 nM, the GI50 (CAKI-1 renal) was 10.5 nM and the TGI (CAKI-1 renal) was 1080 nM. The GI50 (LOX IMVI melanoma) was under 10 nM, the TGI (LOX IMVI melanoma) was 33.4 nM and the GI50 (M14 melanoma) was under 10 nM. It also gave a TGI (M14 melanoma) of 136 nM, a GI50 (SN12C renal) of under 10 nM and a TGI (SN12C renal) of 86 nM. For the same compound, the GI50 (UACC-62 melanoma) was under 10 nM, the TGI (UACC-62 melanoma) was 565 nM and the GI50 (BT-549 breast) was under 10 nM. It also gave a TGI (BT-549 breast) of 35.8 nM, a GI50 (SF-295 CNS) of under 10 nM and a TGI (SF-295 CNS) of 196 nM. For the same compound, the GI50 (HS 578T breast) was under 10 nM, the TGI (HS 578T breast) was 50.8 nM and the GI50 (MCF7 breast) was under 10 nM. It also gave a TGI (MCF7 breast) of 2740 nM.
